Test results taken from patent US10689362B2, “Quinoxaline compounds as type III receptor tyrosine kinase inhibitors” (Development Center for Biotechnology, priority 2016, dated 2020).

How the values were obtained:
CSF-1R kinase = CSF-1R kinase (Homo sapiens (Human), UniProt P07333); experiment: CSF-1R kinase assay (AlphaScreen); type: biochemical; settings: class symbol
Experimental: Inhibition of CSF-1R kinase activity by a test compound disclosed herein was estimated by AlphaScreen (PerkinElmer). […] Reactions were incubated at 30° C. for 45 min and stopped by adding 5 μL of 50 mM EDTA. Analysis of resulting product using an AlphaScreen kit, and counted with Enspire Alpha (PerkinElmer). […] The IC50 values of quinoxaline compounds of this invention against CSF-1R kinase were determined using the GraphPad Prism 5 software.

c-KIT kinase = c-KIT kinase (Homo sapiens (Human), UniProt P10721); experiment: c-KIT kinase assay (radiometric); type: biochemical; settings: class symbol
Sequence of c-KIT kinase (P10721 26-976): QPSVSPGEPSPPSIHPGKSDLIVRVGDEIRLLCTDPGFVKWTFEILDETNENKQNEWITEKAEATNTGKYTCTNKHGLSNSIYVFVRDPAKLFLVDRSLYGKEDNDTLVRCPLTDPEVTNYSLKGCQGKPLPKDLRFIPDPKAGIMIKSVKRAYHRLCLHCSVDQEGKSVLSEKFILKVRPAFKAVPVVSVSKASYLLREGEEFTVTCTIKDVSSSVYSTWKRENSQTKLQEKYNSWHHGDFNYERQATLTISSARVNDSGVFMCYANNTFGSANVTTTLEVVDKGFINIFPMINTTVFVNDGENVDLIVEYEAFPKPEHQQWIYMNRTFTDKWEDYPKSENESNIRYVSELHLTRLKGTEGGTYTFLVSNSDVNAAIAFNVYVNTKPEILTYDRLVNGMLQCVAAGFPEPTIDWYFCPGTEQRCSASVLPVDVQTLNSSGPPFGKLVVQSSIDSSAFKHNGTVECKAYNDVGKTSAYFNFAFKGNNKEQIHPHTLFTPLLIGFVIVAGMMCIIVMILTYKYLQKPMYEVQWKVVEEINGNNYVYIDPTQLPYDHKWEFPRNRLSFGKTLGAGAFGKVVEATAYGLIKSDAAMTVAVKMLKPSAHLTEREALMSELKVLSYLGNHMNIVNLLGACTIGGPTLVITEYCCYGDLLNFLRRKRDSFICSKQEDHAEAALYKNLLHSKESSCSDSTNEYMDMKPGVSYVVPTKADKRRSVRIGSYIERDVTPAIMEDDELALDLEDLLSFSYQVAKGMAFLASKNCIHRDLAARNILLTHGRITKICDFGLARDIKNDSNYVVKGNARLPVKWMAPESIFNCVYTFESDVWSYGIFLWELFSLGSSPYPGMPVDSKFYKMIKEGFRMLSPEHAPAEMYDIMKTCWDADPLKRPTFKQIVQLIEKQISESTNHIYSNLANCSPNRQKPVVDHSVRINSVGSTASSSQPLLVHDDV
In short: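 Recombinant c-Kit (20 ng) with 2 μg Poly-(Glu4:Tyr1) in MOPS pH 7.0 buffer with MgCl2/MnCl2, 10 μM ATP plus [^33P]-ATP, 4% DMSO final, 60 min at 30° C. Stopped with phosphoric acid, filter-captured and scintillation counted; IC50 from curve fit.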

FLT3 kinase = FLT3 kinase (Homo sapiens (Human), UniProt P36888); experiment: FLT3 kinase assay (radiometric); type: biochemical
Sequence of FLT3 kinase (P36888 27-993): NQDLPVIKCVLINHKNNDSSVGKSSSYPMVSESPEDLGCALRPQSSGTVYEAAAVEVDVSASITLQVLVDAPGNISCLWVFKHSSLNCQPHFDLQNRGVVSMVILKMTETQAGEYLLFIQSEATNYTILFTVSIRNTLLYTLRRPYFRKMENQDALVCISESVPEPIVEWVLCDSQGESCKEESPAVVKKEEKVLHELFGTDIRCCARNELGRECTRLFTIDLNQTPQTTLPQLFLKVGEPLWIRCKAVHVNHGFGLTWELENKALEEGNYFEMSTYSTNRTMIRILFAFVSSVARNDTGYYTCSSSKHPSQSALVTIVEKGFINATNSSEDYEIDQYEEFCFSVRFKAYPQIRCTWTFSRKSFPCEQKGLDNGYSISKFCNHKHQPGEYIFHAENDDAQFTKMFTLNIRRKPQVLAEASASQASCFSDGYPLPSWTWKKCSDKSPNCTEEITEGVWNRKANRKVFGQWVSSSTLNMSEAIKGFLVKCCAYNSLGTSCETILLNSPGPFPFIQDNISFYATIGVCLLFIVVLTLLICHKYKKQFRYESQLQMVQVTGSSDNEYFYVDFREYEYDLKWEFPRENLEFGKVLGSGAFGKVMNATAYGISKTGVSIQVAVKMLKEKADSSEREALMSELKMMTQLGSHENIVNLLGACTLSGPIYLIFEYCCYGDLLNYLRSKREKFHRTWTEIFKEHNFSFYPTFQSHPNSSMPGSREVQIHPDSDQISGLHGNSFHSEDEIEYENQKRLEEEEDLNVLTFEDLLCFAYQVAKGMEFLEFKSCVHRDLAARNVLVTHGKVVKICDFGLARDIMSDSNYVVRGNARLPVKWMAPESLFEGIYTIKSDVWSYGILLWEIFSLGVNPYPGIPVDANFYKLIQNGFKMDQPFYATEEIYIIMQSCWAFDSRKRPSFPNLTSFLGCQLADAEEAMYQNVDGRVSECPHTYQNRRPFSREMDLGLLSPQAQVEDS
In short: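 Recombinant FLT3 (5 ng) phosphorylating poly(Glu4:Tyr1) (2 μg) with 10 μM ATP plus [^33P]-ATP in MOPS pH 7.0 buffer, 4% DMSO final, 60 min at 30° C. Reaction stopped with phosphoric acid, filter-captured and scintillation-counted; IC50 derived from dose-response.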

PDGFRβ kinase = PDGFRβ kinase (Homo sapiens (Human), UniProt P09619); experiment: PDGFRβ kinase assay (radiometric); type: biochemical
Sequence of PDGFRβ kinase (P09619 33-1106): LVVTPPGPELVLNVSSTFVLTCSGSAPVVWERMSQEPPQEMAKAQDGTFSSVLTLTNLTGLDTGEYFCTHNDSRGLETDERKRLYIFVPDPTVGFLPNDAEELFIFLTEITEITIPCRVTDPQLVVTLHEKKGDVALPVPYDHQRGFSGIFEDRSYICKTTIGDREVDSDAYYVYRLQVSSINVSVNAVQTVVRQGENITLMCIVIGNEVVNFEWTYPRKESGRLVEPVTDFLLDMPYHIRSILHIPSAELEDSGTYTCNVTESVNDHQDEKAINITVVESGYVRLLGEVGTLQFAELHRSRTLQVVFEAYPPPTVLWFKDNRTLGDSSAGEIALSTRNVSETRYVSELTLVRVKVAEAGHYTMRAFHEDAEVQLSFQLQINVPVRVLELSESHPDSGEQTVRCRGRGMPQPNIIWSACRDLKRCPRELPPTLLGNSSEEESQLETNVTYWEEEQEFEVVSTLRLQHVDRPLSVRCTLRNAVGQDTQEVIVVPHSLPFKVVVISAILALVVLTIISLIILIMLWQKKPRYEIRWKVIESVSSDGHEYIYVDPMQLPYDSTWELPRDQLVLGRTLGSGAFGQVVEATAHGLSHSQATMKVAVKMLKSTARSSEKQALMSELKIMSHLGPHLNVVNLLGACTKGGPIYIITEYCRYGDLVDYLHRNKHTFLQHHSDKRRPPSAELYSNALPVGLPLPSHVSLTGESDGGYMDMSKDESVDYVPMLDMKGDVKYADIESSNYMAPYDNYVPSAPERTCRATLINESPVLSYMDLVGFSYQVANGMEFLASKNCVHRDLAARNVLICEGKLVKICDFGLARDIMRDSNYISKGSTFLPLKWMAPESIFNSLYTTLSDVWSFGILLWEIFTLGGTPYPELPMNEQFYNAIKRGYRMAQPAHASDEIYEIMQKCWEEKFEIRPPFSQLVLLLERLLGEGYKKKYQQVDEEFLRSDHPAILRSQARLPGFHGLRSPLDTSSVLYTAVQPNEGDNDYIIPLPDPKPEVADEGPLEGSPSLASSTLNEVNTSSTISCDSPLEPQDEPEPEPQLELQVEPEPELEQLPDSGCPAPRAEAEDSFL
In short: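 Radiometric assay: recombinant PDGFRβ with poly(Glu4:Tyr1) in MOPS pH 7.0 buffer containing Mg2+/Mn2+, 10 μM ATP plus [33P]-ATP, and compound at 4% DMSO final. Incubated 60 min at 30° C, stopped with phosphoric acid, filter-captured and scintillation-counted. IC50 from curve fitting.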

[1] = test system: CSF-1-dependent M-NFS-60 mouse myeloid leukemia cell; experiment: M-NFS-60 cell proliferation assay (CellTiter-96); type: cell-based; settings: Cytotoxicity, M-NFS-60 cells, 72 hours
In short: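 Growth inhibition was measured as absorbance at 490 nm after 4 h with CellTiter 96 AQueous One reagent. Beforehand, M-NFS-60 cells (2000/well, CSF-1-dependent) were treated with a compound dilution series for 72 h following overnight plating at 37 °C, 5% CO2.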

[2] = test system: MV4-11 human acute myeloid leukemia cell with FLT3-ITD mutation; experiment: MV4-11 cell proliferation assay (CellTiter-96); type: cell-based; settings: Cytotoxicity, MV4-11 cells, 72 hours
In short: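 Growth inhibition read as absorbance at 490 nm after 4 hours with CellTiter96 AQueous One reagent. Before that, FLT3-ITD-dependent MV4-11 cells (6500 cells/well, overnight at 37° C., 5% CO2) received a rising compound concentration series for 72 hours.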

[3] = test system: Kasumi-1 human acute myeloid leukemia cell with c-KIT N822K activating mutation; experiment: Kasumi-1 cell proliferation assay (CellTiter-96); type: cell-based; settings: Cytotoxicity, Kasumi-1 cells, 72 hours
In short: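 After 72 h of treatment with a compound dilution series, growth of c-KIT N822K-driven Kasumi-1 cells (64000 per well, plated the day before) was read as 490 nm absorbance. This followed a 4 h incubation with CellTiter96 AQueous One reagent.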

[4] = test system: THP-1 human acute monocytic leukemia cell harboring NRAS G12D mutation; experiment: THP-1 cell proliferation assay (counter screen, CellTiter-96); type: cell-based; settings: Cytotoxicity, THP-1 cells (counter screen), 72 hours
In short: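 Growth inhibition read as 490 nm absorbance after 4 h with CellTiter96 AQueous One reagent, following 72 h compound exposure at rising concentrations. THP-1 (NRAS G12D) cells plated at 5000 per well and left overnight at 37 °C, 5% CO2 before dosing.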

[5] = test system: osteoclast precursors (osteoclast differentiation); experiment: Osteoclast tartrate-resistant acid phosphatase assay; type: cell-based; settings: 168 h, at 1 μM treatment, 7 days, RANKL and M-CSF, read-out: inhibition activity against osteoclast differentiation
In short: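 Differentiation inhibition was scored at 1 μM compound in duplicate, using supernatant TRAP activity read at 550 nm with an acid phosphatase kit.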

Sequence of CSF-1R kinase (P07333 20-972): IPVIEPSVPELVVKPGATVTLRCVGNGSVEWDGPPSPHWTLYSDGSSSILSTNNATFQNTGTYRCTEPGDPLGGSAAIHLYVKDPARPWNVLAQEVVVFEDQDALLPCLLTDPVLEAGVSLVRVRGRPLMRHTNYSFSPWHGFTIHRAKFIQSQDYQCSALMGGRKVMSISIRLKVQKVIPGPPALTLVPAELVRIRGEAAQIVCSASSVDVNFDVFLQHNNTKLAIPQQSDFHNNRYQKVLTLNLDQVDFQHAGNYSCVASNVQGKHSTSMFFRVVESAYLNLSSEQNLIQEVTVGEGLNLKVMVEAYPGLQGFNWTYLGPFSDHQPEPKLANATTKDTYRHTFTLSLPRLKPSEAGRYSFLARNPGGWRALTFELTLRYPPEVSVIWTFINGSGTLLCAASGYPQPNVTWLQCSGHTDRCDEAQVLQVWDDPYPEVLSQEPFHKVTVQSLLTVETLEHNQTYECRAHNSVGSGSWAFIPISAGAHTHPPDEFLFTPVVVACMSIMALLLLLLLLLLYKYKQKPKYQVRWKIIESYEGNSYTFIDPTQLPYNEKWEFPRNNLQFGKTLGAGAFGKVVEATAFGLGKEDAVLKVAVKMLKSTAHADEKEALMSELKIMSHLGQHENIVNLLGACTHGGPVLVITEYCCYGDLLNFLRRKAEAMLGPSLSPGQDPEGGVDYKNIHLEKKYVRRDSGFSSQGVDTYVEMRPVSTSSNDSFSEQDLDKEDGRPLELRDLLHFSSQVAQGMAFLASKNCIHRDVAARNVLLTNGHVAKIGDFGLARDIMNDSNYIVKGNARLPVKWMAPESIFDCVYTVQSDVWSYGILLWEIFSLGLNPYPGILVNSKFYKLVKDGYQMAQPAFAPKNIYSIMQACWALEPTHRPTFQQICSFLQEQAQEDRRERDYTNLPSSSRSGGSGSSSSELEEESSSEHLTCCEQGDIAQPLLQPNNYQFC

Compound	IC50 (CSF-1R kinase) [nM]	IC50 (c-KIT kinase) [nM]	IC50 (FLT3 kinase; bound) [nM]	IC50 (PDGFRβ kinase; bound) [nM]	IC50 [1] [nM]	IC50 [2] [nM]	IC50 [3] [nM]	IC50 [4] [nM]	inhibition at 1 µM [5] [%]	IC50 (FLT3 kinase; class symbol) [nM]	IC50 (PDGFRβ kinase; class symbol) [nM]
COc1cc(Nc2ccc3ncc(N4CCOCC4)nc3c2C#N)ccc1OCc1cnn(CCF)c1 [Example 131, 6-((4-((1-(2-fluoroethyl)-1H-pyrazol-4-yl)methoxy)-3-methoxyphenyl)amino)-3-morpholinoquinoxaline-5-carbonitrile]	< 100	300 to 1000	> 1000	> 1000	< 300	> 10000	> 10000	> 10000	> 50		
COc1ccc(COc2ccc(Nc3ccc4ncc(NC(C)C)nc4c3C#N)cc2OC)cc1 [Example 17, 3-(isopropylamino)-6-((3-methoxy-4-((4-methoxybenzyl)oxy)phenyl)amino)quinoxaline-5-carbonitrile]	< 100	< 100	> 1000	> 1000	< 300	1000 to 10000	300 to 1000	> 10000	> 50		
COc1cc(Nc2ccc3ncc(N4CCN(C)CC4)nc3c2C#N)ccc1OCc1cccc(C#N)c1 [Example 78, 6-((4-((3-cyanobenzyl)oxy)-3-methoxyphenyl)amino)-3-(4-methylpiperazin-1-yl)quinoxaline-5-carbonitrile]	< 100	100 to 300	> 1000	> 1000	< 300	> 10000	300 to 1000	> 10000	> 50		
CCn1cc(COc2ccc(Nc3ccc4ncc(N5CCOCC5)nc4c3C#N)cc2OC)cn1 [Example 116, 6-((3-methoxy-4-((1-ethyl-1H-pyrazol-4-yl)methoxy)phenyl)amino)-3-morpholinoquinoxaline-5-carbonitrile]	< 100	100 to 300	> 1000	> 1000	< 300	1000 to 10000	300 to 1000	> 10000	> 50		
COc1cc(Nc2ccc3ncc(N4CCC4)nc3c2C#N)ccc1OCc1cccc(C#N)c1 [Example 87, 3-(azetidin-1-yl)-6-((4-((3-cyanobenzyl)oxy)-3-methoxyphenyl)amino)quinoxaline-5-carbonitrile]	< 100	100 to 300	> 1000	> 1000	300 to 1000	> 10000	1000 to 10000	> 10000	> 50		
COc1ccc(COc2ccc(Nc3ccc4ncc(N5CCOCC5)nc4c3C#N)cc2OC)cc1 [Example 16, 6-((3-methoxy-4-((4-methoxybenzyl)oxy)phenyl)amino)-3-morpholinoquinoxaline-5-carbonitrile]	< 100	< 100	> 1000	> 1000	< 300	> 10000	< 300	> 10000	> 50		
CCOc1ccc(COc2ccc(Nc3ccc4ncc(N5CCOCC5)nc4c3C#N)cc2OC)cn1 [Example 112, 6-((4-((6-ethoxypyridin-3-yl)methoxy)-3-methoxyphenyl)amino)-3-morpholinoquinoxaline-5-carbonitrile]	< 100	< 100	> 1000	> 1000	< 300	1000 to 10000	< 300	> 10000	> 50		
COc1cc(Nc2ccc3ncc(N4CCOCC4)nc3c2C#N)ccc1OCc1ccc(CN(C)C)nc1 [Example 115, 6-((4-((6-((dimethylamino)methyl)pyridin-3-yl)methoxy)-3-methoxyphenyl)amino)-3-morpholinoquinoxaline-5-carbonitrile]	< 100	300 to 1000	> 1000	> 1000	< 300	1000 to 10000	1000 to 10000	> 10000	> 50		
COc1ccc(COc2ccc(Nc3ccc4ncc(N5CCC5)nc4c3C#N)cc2OC)cc1 [Example 83, 3-(azetidin-1-yl)-6-((3-methoxy-4-((4-methoxybenzyl)oxy)phenyl)amino)quinoxaline-5-carbonitrile]	< 100	< 100	> 1000	> 1000	< 300	> 10000	< 300	> 10000	> 50		
COc1ccc(COc2ccc(Nc3ccc4ncc(N5CCOCC5)nc4c3C#N)c(F)c2)cc1 [Example 53, 6-((2-fluoro-4-((4-methoxybenzyl)oxy)phenyl)amino)-3-morpholinoquinoxaline-5-carbonitrile]	< 100	300 to 1000		> 1000	300 to 1000	< 300	1000 to 10000	> 10000	> 50	300 to 1000	
CCc1ccc(COc2ccc(Nc3ccc4ncc(N5CCOCC5)nc4c3C#N)cc2OC)cc1 [Example 33, 6-((4-((4-ethylbenzyl)oxy)-3-methoxyphenyl)amino)-3-morpholinoquinoxaline-5-carbonitrile]	< 100	< 100	> 1000		< 300	1000 to 10000	< 300	> 10000	> 50		100 to 300
COc1ccc(COc2ccc(Nc3ccc4ncc(N5CCN(CCO)CC5)nc4c3C#N)cc2OC)cc1 [Example 66, 3-(4-(2-hydroxyethyl)piperazin-1-yl)-6-((3-methoxy-4-((4-methoxybenzyl)oxy)phenyl)amino)quinoxaline-5-carbonitrile]	< 100	< 100	> 1000		< 300	1000 to 10000	< 300	> 10000	> 50		300 to 1000
COc1ccc(COc2ccc(Nc3ccc4ncc(N5CCC5)nc4c3C#N)cc2OC)cn1 [Example 86, 3-(azetidin-1-yl)-6-((3-methoxy-4-((6-methoxpyridin-3-yl)methoxy)phenyl)amino)quinoxaline-5-carbonitrile]	< 100	100 to 300	> 1000	> 1000	< 300	> 10000	1000 to 10000	> 10000	> 50		
COc1cc(Nc2ccc3ncc(N4CC(C)(OC)C4)nc3c2C#N)ccc1OCc1ccc(C)nc1 [Example 138, 3-(3-methoxy-3-methylazetidin-1-yl)-6-((3-methoxy-4-((6-methyl-pyridin-3-yl)methoxy)phenyl)amino)quinoxaline-5-carbonitrile]	< 100	< 100	> 1000	> 1000	< 300	1000 to 10000	< 300	> 10000	> 50		
COc1ccc(COc2ccc(Nc3ccc4ncc(N5CCNCC5)nc4c3C#N)cc2OC)cc1 [Example 90, 6-((3-methoxy-4-((4-methoxybenzyl)oxy)phenyl)amino)-3-(piperazin-1-yl)quinoxaline-5-carbonitrile]	< 100	< 100	> 1000	> 1000	< 300	> 10000	300 to 1000	> 10000	> 50		
